Assay results from the supplement of paper PMC10307832.

Compound: COc1nc(N)nc2c1ncn2[C@@H]1O[C@H](CO)[C@@H](O)[C@@H]1O [Nelarabine]
Test: relative viability (nuclei count vs DMSO), 5 days (fraction); higher = more cells survive
Conditions: 1 µM
How it was run: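 Lung cancer cell lines in 1536-well plates were kept overnight at 37 °C, then pinned with five library-drug doses (not always all listed) spaced by √10 on vehicle-anchored plates. After 5 days without medium change, cells were fixed, permeabilised and Hoechst-stained in one step, imaged at 4×, and nuclei were counted with MetaXpress. Viability is treated-well nuclei divided by vehicle-well nuclei, taken as the median over plates. Plates passed only with control CV below 25% and at least one doubling.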

| Cell Line | relative viability |
| --- | --- |
| UMC-11 | 0.996 |

Compound: C=CCn1c(=O)c2cnc(Nc3ccc(N4CCN(C)CC4)cc3)nc2n1-c1cccc(C(C)(C)O)n1 [Adavosertib] + CS(=O)(=O)N1CCN(Cc2cc3nc(-c4cccc5[nH]ncc45)nc(N4CCOCC4)c3s2)CC1 [Pictilisib] (partner 1 µM)
Test: relative viability (nuclei count vs DMSO), 5 days (fraction); higher = more cells survive
Conditions: first compound 0.01 µM
How it was run: (§1)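 One day after seeding in 1536-well plates, lung cancer cell lines were dosed by pin tool. Dosing was either single-drug or a fixed anchor-drug dose plus five library-drug doses (not always all listed) in √10 steps. After 5 days, nuclei were stained in one fix-and-stain step and counted on 4× images, and relative viability is the nuclei count of treated wells over that of vehicle wells, given as the median of duplicate plates.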

| Cell Line | relative viability |
| --- | --- |
| NCI-H1734 | 0.41 |
| NCI-H1755 | 0.433 |
| NCI-H1792 | 0.294 |
| NCI-H1793 | 0.385 |
| NCI-H1915 | 0.97 |
| NCI-H1944 | 0.387 |
| NCI-H1975 | 0.267 |
| NCI-H1993 | 0.858 |
| NCI-H2009 | 0.766 |
| NCI-H2023 | 0.251 |
| NCI-H2085 | 0.491 |
| NCI-H2087 | 0.86 |
| NCI-H2126 | 0.531 |
| NCI-H2170 | 0.345 |
| NCI-H2228 | 0.695 |
| NCI-H2347 | 0.567 |
| NCI-H2405 | 0.466 |
| NCI-H3122 | 0.584 |
| PC-3 [JPC-3] | 0.719 |
| PC-14 | 0.72 |
| RERF-LC-KJ | 0.568 |
| SK-LU-1 | 0.649 |
| SK-MES-1 | 0.307 |
| SW 1573 | 0.482 |
| UMC-11 | 0.817 |

Same assay, conditions: first compound 0.03162 µM

| Cell Line | relative viability |
| --- | --- |
| NCI-H1734 | 0.434 |
| NCI-H1755 | 0.451 |
| NCI-H1792 | 0.224 |
| NCI-H1793 | 0.295 |
| NCI-H1915 | 1 |
| NCI-H1944 | 0.333 |
| NCI-H1975 | 0.279 |
| NCI-H1993 | 0.818 |
| NCI-H2009 | 0.847 |
| NCI-H2023 | 0.21 |
| NCI-H2085 | 0.451 |
| NCI-H2087 | 0.947 |
| NCI-H2126 | 0.526 |
| NCI-H2170 | 0.308 |
| NCI-H2228 | 0.45 |
| NCI-H2347 | 0.61 |
| NCI-H2405 | 0.412 |
| NCI-H3122 | 0.606 |
| PC-3 [JPC-3] | 0.775 |
| PC-14 | 0.64 |
| RERF-LC-KJ | 0.636 |
| SK-LU-1 | 0.532 |
| SK-MES-1 | 0.343 |
| SW 1573 | 0.525 |
| UMC-11 | 0.723 |

Same assay, conditions: first compound 0.1 µM

| Cell Line | relative viability |
| --- | --- |
| NCI-H1734 | 0.478 |
| NCI-H1755 | 0.4 |
| NCI-H1792 | 0.233 |
| NCI-H1793 | 0.318 |
| NCI-H1915 | 1.05 |
| NCI-H1944 | 0.333 |
| NCI-H1975 | 0.261 |
| NCI-H1993 | 0.932 |
| NCI-H2009 | 0.68 |
| NCI-H2023 | 0.197 |
| NCI-H2085 | 0.41 |
| NCI-H2087 | 0.833 |
| NCI-H2126 | 0.506 |
| NCI-H2170 | 0.264 |
| NCI-H2228 | 0.448 |
| NCI-H2347 | 0.297 |
| NCI-H2405 | 0.437 |
| NCI-H3122 | 0.72 |
| PC-3 [JPC-3] | 0.725 |
| PC-14 | 0.569 |
| RERF-LC-KJ | 0.519 |
| SK-LU-1 | 0.456 |
| SK-MES-1 | 0.321 |
| SW 1573 | 0.58 |
| UMC-11 | 0.743 |

Same assay, conditions: first compound 0.3162 µM

| Cell Line | relative viability |
| --- | --- |
| NCI-H1734 | 0.31 |
| NCI-H1755 | 0.326 |
| NCI-H1792 | 0.272 |
| NCI-H1793 | 0.248 |
| NCI-H1915 | 0.985 |
| NCI-H1944 | 0.326 |
| NCI-H1975 | 0.19 |
| NCI-H1993 | 0.719 |
| NCI-H2009 | 0.395 |
| NCI-H2023 | 0.143 |
| NCI-H2085 | 0.519 |
| NCI-H2087 | 0.923 |
| NCI-H2126 | 0.521 |
| NCI-H2170 | 0.31 |
| NCI-H2228 | 0.305 |
| NCI-H2347 | 0.762 |
| NCI-H2405 | 0.373 |
| NCI-H3122 | 0.613 |
| PC-3 [JPC-3] | 0.865 |
| PC-14 | 0.272 |
| RERF-LC-KJ | 0.358 |
| SK-LU-1 | 0.242 |
| SK-MES-1 | 0.213 |
| SW 1573 | 0.343 |
| UMC-11 | 0.755 |

Compound: COc1nc(N)nc2c1ncn2[C@@H]1O[C@H](CO)[C@@H](O)[C@@H]1O [Nelarabine] + CS(=O)(=O)CCNCc1ccc(-c2ccc3ncnc(Nc4ccc(OCc5cccc(F)c5)c(Cl)c4)c3c2)o1 [Lapatinib] (partner 2 µM)
Test: as above
Conditions: first compound 0.01 µM
How it was run: as §1

| Cell Line | relative viability |
| --- | --- |
| NCI-H1734 | 1.23 |
| NCI-H1755 | 1.27 |
| NCI-H1792 | 0.913 |
| NCI-H1793 | 0.827 |
| NCI-H1915 | 1.19 |
| NCI-H1944 | 0.895 |
| NCI-H1975 | 1.27 |
| NCI-H1993 | 0.836 |
| NCI-H2009 | 1.04 |
| NCI-H2023 | 1.48 |
| NCI-H2085 | 0.889 |
| NCI-H2087 | 1 |
| NCI-H2126 | 0.91 |
| NCI-H2170 | 0.284 |
| NCI-H2228 | 1.1 |
| NCI-H2347 | 0.977 |
| NCI-H2405 | 1.14 |
| NCI-H3122 | 1.08 |
| PC-3 [JPC-3] | 0.508 |
| PC-14 | 0.327 |
| RERF-LC-KJ | 0.912 |
| SK-LU-1 | 1.24 |
| SK-MES-1 | 0.432 |
| SW 1573 | 1.14 |
| UMC-11 | 1.05 |

Same assay, conditions: first compound 0.03162 µM

| Cell Line | relative viability |
| --- | --- |
| NCI-H1734 | 1.22 |
| NCI-H1755 | 0.937 |
| NCI-H1793 | 0.945 |
| NCI-H1915 | 0.867 |
| NCI-H1944 | 0.782 |
| NCI-H1975 | 0.958 |
| NCI-H1993 | 0.774 |
| NCI-H2009 | 1.03 |
| NCI-H2023 | 1.15 |
| NCI-H2085 | 0.804 |
| NCI-H2087 | 1.02 |
| NCI-H2126 | 0.763 |
| NCI-H2170 | 0.232 |
| NCI-H2228 | 1.1 |
| NCI-H2347 | 0.904 |
| NCI-H2405 | 1.13 |
| NCI-H3122 | 0.891 |
| PC-3 [JPC-3] | 0.373 |
| PC-14 | 0.342 |
| RERF-LC-KJ | 0.99 |
| SK-LU-1 | 0.617 |
| SK-MES-1 | 0.544 |
| SW 1573 | 1.13 |
| UMC-11 | 0.863 |

Same assay, conditions: first compound 0.1 µM

| Cell Line | relative viability |
| --- | --- |
| NCI-H1734 | 1.09 |
| NCI-H1755 | 1.09 |
| NCI-H1792 | 1.45 |
| NCI-H1793 | 0.83 |
| NCI-H1915 | 1.01 |
| NCI-H1944 | 0.841 |
| NCI-H1975 | 0.92 |
| NCI-H1993 | 0.81 |
| NCI-H2009 | 0.869 |
| NCI-H2023 | 0.642 |
| NCI-H2085 | 0.74 |
| NCI-H2087 | 1.09 |
| NCI-H2126 | 0.72 |
| NCI-H2170 | 0.262 |
| NCI-H2347 | 0.94 |
| NCI-H2405 | 0.904 |
| PC-3 [JPC-3] | 0.439 |
| PC-14 | 0.307 |
| RERF-LC-KJ | 1.01 |
| SK-LU-1 | 0.887 |
| SK-MES-1 | 0.456 |
| SW 1573 | 1.11 |
| UMC-11 | 1.02 |

Same assay, conditions: first compound 0.3162 µM

| Cell Line | relative viability |
| --- | --- |
| NCI-H1734 | 1.08 |
| NCI-H1755 | 1.29 |
| NCI-H1792 | 1.03 |
| NCI-H1793 | 0.933 |
| NCI-H1915 | 1.09 |
| NCI-H1944 | 0.799 |
| NCI-H1975 | 1.11 |
| NCI-H1993 | 0.67 |
| NCI-H2009 | 1.07 |
| NCI-H2023 | 0.812 |
| NCI-H2085 | 0.754 |
| NCI-H2087 | 1.07 |
| NCI-H2126 | 0.754 |
| NCI-H2170 | 0.293 |
| NCI-H2228 | 0.974 |
| NCI-H2347 | 0.954 |
| NCI-H2405 | 1.06 |
| NCI-H3122 | 1.08 |
| PC-3 [JPC-3] | 0.451 |
| PC-14 | 0.328 |
| RERF-LC-KJ | 0.88 |
| SK-LU-1 | 0.94 |
| SK-MES-1 | 0.563 |
| SW 1573 | 1.18 |
| UMC-11 | 1.02 |

Same assay, conditions: first compound 1 µM

| Cell Line | relative viability |
| --- | --- |
| NCI-H1734 | 1.06 |
| NCI-H1755 | 1.1 |
| NCI-H1792 | 0.967 |
| NCI-H1793 | 0.727 |
| NCI-H1915 | 0.997 |
| NCI-H1944 | 0.845 |
| NCI-H1975 | 0.982 |
| NCI-H1993 | 0.785 |
| NCI-H2009 | 1.03 |
| NCI-H2023 | 0.948 |
| NCI-H2085 | 0.835 |
| NCI-H2087 | 1.32 |
| NCI-H2126 | 0.797 |
| NCI-H2170 | 0.28 |
| NCI-H2228 | 0.977 |
| NCI-H2347 | 0.992 |
| NCI-H2405 | 1.04 |
| NCI-H3122 | 1.01 |
| PC-3 [JPC-3] | 0.436 |
| PC-14 | 0.353 |
| RERF-LC-KJ | 0.876 |
| SK-LU-1 | 0.885 |
| SK-MES-1 | 0.555 |
| SW 1573 | 1.2 |
| UMC-11 | 1.14 |
